In PubChem BioAssay (NCI):
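In this assay, cells in 96-well plates receive the compound at five concentrations for 48 hours. Endpoints are linearly interpolated between the surrounding concentrations. GI50 marks 50% less growth. TGI denotes the concentration required for complete inhibition of growth.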

Tests used:
Assay in all cases: NCI-60 cell line screen, 48 h
SF-539 CNS = test system: SF-539 CNS
MOLT-4 leukemia = test system: MOLT-4 leukemia
ACHN renal = test system: ACHN renal
OVCAR-3 ovarian = test system: OVCAR-3 ovarian
SR leukemia = test system: SR leukemia
SNB-75 CNS = test system: SNB-75 CNS
TK-10 renal = test system: TK-10 renal
NCI-H460 lung = test system: NCI-H460 lung
MALME-3M melanoma = test system: MALME-3M melanoma
HOP-62 NSCLC = test system: HOP-62 NSCLC

| Structure (SMILES) | GI50 (SF-539 CNS) [µM] | TGI (SF-539 CNS) [µM] | GI50 (MOLT-4 leukemia) [µM] | TGI (MOLT-4 leukemia) [µM] | GI50 (ACHN renal) [µM] | TGI (ACHN renal) [µM] | GI50 (OVCAR-3 ovarian) [µM] | TGI (OVCAR-3 ovarian) [µM] | GI50 (SR leukemia) [µM] | TGI (SR leukemia) [µM] | GI50 (SNB-75 CNS) [µM] | TGI (SNB-75 CNS) [µM] | GI50 (TK-10 renal) [µM] | TGI (TK-10 renal) [µM] | GI50 (NCI-H460 lung) [µM] | TGI (NCI-H460 lung) [µM] | GI50 (MALME-3M melanoma) [µM] | TGI (MALME-3M melanoma) [µM] | GI50 (HOP-62 NSCLC) [µM] | TGI (HOP-62 NSCLC) [µM] |
| --- | --- | --- | --- | --- | --- | --- | --- | --- | --- | --- | --- | --- | --- | --- | --- | --- | --- | --- | --- | --- |
| COc1cc2c3c(n(C)c(=O)c2cc1OC)-c1cc2c(cc1/C3=C\CCCCN)OCO2 | 2.83 | 6.23 | 5.78 | > 100 | 9.66 | 26.3 | 16.9 | 33.4 | 3.58 | > 100 | 3.54 | 7.12 | 3.95 | 17.6 | 5.02 | > 100 |  |  |  |  |
| CC(=O)[CH-]C(=O)c1ccccc1.CC(=O)[CH-]C(=O)c1ccccc1.CCN(CC)CC[O-].CCN(CC)CC[O-].Cl.[Ti+4] | 27.2 | 76.5 | 16.8 | 59.9 | 39.5 | > 100 | 28.3 | > 100 |  |  | 21.9 | 47.3 |  |  | 29.8 | > 100 | 22.8 | 60.8 | 37.4 | > 100 |
| CC(=O)O[C@H]1C(=O)[C@@]2(C)C([C@H](OC(=O)c3ccccc3)[C@]3(O)C[C@H](OC(=O)[C@H](O)[C@H](NC(=O)c4ccccc4)c4ccc(Cl)cc4)C(C)=C1C3(C)C)C1(OC(C)=O)CO[C@@H]1C[C@@H]2O (stereo partly drawn) |  | 0.0026 |  | 2.36 | 1.66 | > 100 |  | 0.0124 |  |  |  |  | 0.0171 | 14.4 |  |  |  | 26.3 | 0.0321 | 26.5 |
| Cc1ccc(-c2c(C#N)c(N)nc(N3CCOCC3)c2C#N)o1 | 48.3 | > 100 | 61.9 | > 100 |  |  |  |  |  |  | 2.73 | 43.9 | 35.4 | > 100 | 43.3 | > 100 | 43.4 | > 100 | 26.4 | > 100 |
| OB([O][Hg][c]1ccccc1)[O][Hg][c]1ccccc1 | 1.09 | 2.34 | 0.177 | 0.643 | 0.493 | 1.39 | 0.0812 | 0.213 |  |  | 0.291 | 1.36 |  |  | 0.589 | 3.06 | 0.244 | 0.788 | 1.04 | 3.39 |
| CCOC(=O)/N=c1\ss/c(=N\C(=S)N(C)C)n1-c1ccccc1 |  | > 100 | > 100 | > 100 |  | > 100 | 23.2 |  |  |  | 4.69 | 28.3 |  | > 100 | 35.2 | > 100 | > 100 | > 100 |  | > 100 |
| COc1ccc(/C(=C/c2cc(OC)c(OC)c(OC)c2)[N+](=O)[O-])cc1 | 1.61 | 2.98 |  |  | 1.54 | 2.88 | 1.66 | 3.14 |  |  | 2.02 | 6.3 | 1.88 | 3.59 | 2.24 | 5.23 | 1.68 | 3.71 | 2.64 | 5.93 |
| C1CCC([PH+](C2CCCCC2)C2CCCCC2[PH+](C2CCCCC2)C2CCCCC2)CC1.[Au].[CH-]1CCCCC1C1CCCC[N-]1 (stereo not drawn) | 0.337 | 1.28 | 0.366 | > 100 | 1 | 2.17 | 0.286 | 1.1 | 0.392 | > 100 | 0.194 | 0.833 | 0.463 | 1.86 |  |  | 0.208 | 0.844 | 0.314 | 1.89 |
| N#C/C(=C\c1c(-c2ccccc2)[nH]c2ccccc12)C(=O)c1ccc(Cl)cc1 | 0.715 | 3.99 | 1.01 | 8.87 | 6.69 | > 55 | 1.52 | 4.65 |  |  | 1.43 | 8.7 | 8.6 | 43.8 | 1.02 | 11.6 | 3.61 | 30.2 | 5.41 | 26 |
| CCOC(=O)/C(C1=N[C@H](C(=O)OCC)CS1)=C(\C)O |  |  |  | > 100 |  | > 100 |  | > 100 |  | > 100 |  | > 100 |  |  |  | > 100 |  | > 100 |  | > 100 |
| O=C(O)CN(c1ccc(Cl)cc1)S(=O)(=O)c1ccccc1 |  | > 100 |  | > 100 |  | > 100 |  | > 100 |  |  |  | > 100 |  | > 100 |  | > 100 |  | > 100 |  |  |
| ClC(=Nc1cccc2ccccc12)N(c1ccccc1)c1ccccc1 |  |  |  |  |  | > 100 |  | > 100 |  | > 100 |  | > 100 |  | > 100 |  | 90.8 |  | > 100 |  | > 100 |
| CC1=C(C(=O)Nc2ccccc2)C(c2ccc3c(c2)OCO3)C(C(=O)Nc2ccccc2)=C(C)N1 |  | 76 |  | 82 |  | > 100 |  | > 100 |  |  |  |  |  | > 100 |  | > 100 |  | > 100 |  | > 100 |
| O=c1c(Cl)nnc2sc3ccccc3n12 | 37.5 | > 100 | 19.6 | > 100 | 2.3 | 9.92 | 34.4 | > 100 | 13.1 | > 100 | > 100 | > 100 | 8.15 | 90.7 | 37.7 | > 100 |  |  | 67.4 | > 100 |
| NC(N)=NS(=O)(=O)c1ccc(NC(=O)c2cccc3c(Nc4ccc(S(=O)(=O)N=C(N)N)cc4)c4ccc(Cl)cc4nc23)cc1 |  | > 100 |  | > 100 |  | > 100 |  | > 100 |  |  |  | > 100 |  | > 100 |  | > 100 |  | > 100 |  | > 100 |
| CC12OC(C(=O)C13CC3)C1C(=O)c3ccccc3C(=O)C12 (stereo not drawn) | 24.2 | 54.6 | 32 | > 100 |  |  |  |  |  |  | 77.5 | > 100 | 22.8 | 58.8 | 29.9 | > 100 | 27.9 | 87.1 | 27.8 | 80 |
| CCCCOC(=O)C(=O)C(CC(C(=O)Cc1ccccc1)c1ccccc1)C(=O)C=C(C)C (stereo not drawn) |  | > 100 |  | > 100 |  | > 100 |  | > 100 |  |  |  | > 100 |  | > 100 |  | > 100 |  |  |  | > 100 |
